Literature values in US20210363253A1, “USE OF COMBINED TREATMENT OF PD-1 ANTIBODY AND APATINIB FOR TREATING TRIPLE NEGATIVE BREAST CANCER” (JIANGSU HENGRUI MEDICINE CO., LTD., priority 2017, published 2021).

Conditions: with oxaliplatin, 5-Fu, docetaxel, doxorubicin; preclinical animal experiments

N#CC1(c2ccc(NC(=O)c3cccnc3NCc3ccncc3)cc2)CCCC1 [Apatinib]
efficacy of cytotoxic drugs in combination with Apatinib: significantly increase their efficacy
